Measured values reported in publication PMC11388281, “Prevotella are major contributors of sialidases in the human vaginal microbiome” (Proceedings of the National Academy of Sciences of the …, 2024).

Columns and labels:
Test in all cases: fluorescence sialidase assay with 4-MU-Neu5Ac
Format in all cases: biochemical
PtNanH2 = target: T1, PtNanH2 (Hoylesella timonensis, UniProt D1VWZ8)
T1 construct: gene HMPREF9019_0332; full-length gene in pET28a, N-terminal His6 tag, E. coli BL21(DE3); 1,030 amino acids incl. predicted signal peptide

PtNanH1 = target: T2, PtNanH1 (Hoylesella timonensis, UniProt D1VY87)
T2 construct: gene HMPREF9019_1088; full-length gene in pET28a, N-terminal His6 tag, E. coli BL21(DE3); 413 amino acids incl. predicted signal peptide

PdNanH = target: T3, PdNanH (Prevotella denticola, UniProt F0H7U2); conditions: 100 µM 4-MU-Neu5Ac, 5 nM enzyme, sodium acetate pH 5.5, 37 °C
T3 construct: gene HMPREF9303_0049; full-length gene in pET28a, N-terminal His6 tag, E. coli BL21(DE3); predicted signal peptide
Source text: fluorescence sialidase assay with 4-MU-Neu5Ac on PdNanH | All enzymes were inhibited by the well-characterized, broad-spectrum sialidase inhibitor, Neu5ac2en

PbNanH = target: T4, PbNanH (Prevotella bivia, UniProt I4ZBT3); conditions: 100 µM 4-MU-Neu5Ac, 5 nM enzyme, sodium acetate pH 5.5, 37 °C
T4 construct: gene PrebiDRAFT_2006; full-length gene in pET28a, N-terminal His6 tag, E. coli BL21(DE3)
Source text: fluorescence sialidase assay with 4-MU-Neu5Ac on PbNanH | All enzymes were inhibited by the well-characterized, broad-spectrum sialidase inhibitor, Neu5ac2en

GvNanH3 = target: T5, GvNanH3 (Gardnerella vaginalis, UniProt S4HLQ0)
T5 construct: full-length gene in pET28a, N-terminal His6 tag, E. coli BL21(DE3)
Source text: fluorescence sialidase assay with 4-MU-Neu5Ac on GvNanH3 | All enzymes were inhibited by the well-characterized, broad-spectrum sialidase inhibitor, Neu5ac2en

SMILES	IC50 (PtNanH2) [µM]	IC50 (PtNanH1) [µM]	IC50 (PdNanH) [µM]	IC50 (PbNanH) [µM]	IC50 (GvNanH3) [µM]
CC(=O)N[C@H]1[C@H]([C@H](O)[C@H](O)CO)OC(C(=O)O)=C[C@@H]1O [Neu5Ac2en]	56 ± 23	180 ± 92.3	50.5 ± 22.5	103 ± 20.3	29 ± 5.6
CC(=O)N[C@H]1[C@H]([C@H](O)[C@H](O)CO)OC(C(=O)O)=C[C@@H]1N=C(N)N [Zanamivir]	33.6 ± 15.5				
